# Data published in patent US20230031406A1, “COMPOUNDS AND COMPOSITIONS FOR TREATING CONDITIONS ASSOCIATED WITH NLRP ACTIVITY” (Novartis AG, priority 2018, published 2023).
# Tested on: PMA-differentiated THP-1 cells
# Assay: IL-1β production in PMA-differentiated THP-1 cells stimulated with gramicidin (hTHP-1 assay containing 2% fetal bovine serum; Procedures 1 and 2)
# Type: cell-based, human
# Settings: Homo sapiens, THP-1, Table B1; 2% fetal bovine serum; class symbols; read-out: Average IC50 of compounds in hTHP-1 assay: hTHP-1 IC50
# Procedure, shortened: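 PMA-primed (20 ng/ml, 16-18 h) THP-1 cells in RPMI with 2% FBS, 50,000 cells/well, were preincubated 1 h with compound (0.0017-100 μM final, 0.37% DMSO), then stimulated 2 h with 5 μM gramicidin. Supernatant IL-1β measured by HTRF.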
row,IC50,Compound
1,0.2 to 1 µM,"Cc1c(C2CC2)nc2c(c1NC(=O)N=S(N)(=O)c1cc(C(C)(C)O)cs1)CCC2 (stereo not drawn) [Compound 175, N′-((2-cyclopropyl-3-methyl-6,7-dihydro-5H-cyclopenta[b]pyridin-4-yl)carbamoyl)-4-(2-hydroxypropan-2-yl)thiophene-2-sulfonimidamide]"

# Same assay, conditions: Homo sapiens, THP-1, Table B1; 2% fetal bovine serum; numeric bounds; read-out: Average IC50 of compounds in hTHP-1 assay: hTHP-1 IC50
row,Compound,IC50
1,"Cc1c(-c2ccccc2)nc2c(c1NC(=O)N=S(N)(=O)c1cnc(C(C)(C)O)s1)CCC2 (single isomer, unassigned) [Compound 143a, (S) or (R)-2-(2-hydroxy-propan-2-yl)-N′-((3-methyl-2-phenyl-6,7-dihydro-5H-cyclopenta[b]pyridin-4-yl)carbamoyl)thiazole-5-sulfonimidamide]",> 30 µM
2,"Cc1nc(C)c(C)c(NC(=O)N=S(N)(=O)c2cnc(C(C)(C)O)s2)c1C (single isomer, unassigned) [Compound 133a, (R) or (S)-2-(2-hydroxypropan-2-yl)-N′-((2,3,5,6-tetramethylpyridin-4-yl)carbamoyl)thiazole-5-sulfonimidamide]",> 30 µM

# Now from value to compound:
row,IC50,Compound
1,> 24 µM,"CC(C)(O)c1nc(CCO)c(S(N)(=O)=NC(=O)Nc2c3c(nc4c2CCC4)CCC3)s1 (single isomer, unassigned) [Compound 118b, (S) or (R)-N′-((1,2,3,5,6,7-hexahydrodicyclo-penta[b,e]pyridin-8-yl)carbamoyl)-4-(2-hydroxyethyl)-2-(2-hydroxypropan-2-yl)thiazole-5-sulfonimidamide]"
2,> 14 µM,"CC(C)c1cc(NC(=O)N=S(N)(=O)c2cc(C(C)(C)O)cs2)c2c(n1)CCC2 (stereo not drawn) [Compound 182, 4-(2-hydroxypropan-2-yl)-N′-((2-isopropyl-6,7-dihydro-5H-cyclopenta[b]pyridin-4-yl)carbamoyl)thiophene-2-sulfonimidamide]"

# Same assay, conditions: Homo sapiens, THP-1, Table B2; 2% fetal bovine serum; class symbols; read-out: hTHP-1 IC50
row,Compound,IC50
1,"CC(C)(O)c1cc(Br)c(S(N)(=O)=NC(=O)Nc2c3c(nc4c2CCC4)CCC3)s1 (single isomer, unassigned) [Compound 690b, (R) or (S)-3-Bromo-N′-((1,2,3,5,6,7-hexahydrodicyclopenta [b,e]pyridin-8-yl)carbamoyl)-5-(2-hydroxypropan-2-yl)thiophene-2-sulfonimidamide]",1 to 5 µM
2,"NS(=O)(=NC(=O)Nc1c2c(nc3c1CCC3)CCC2)c1ccn(CC(F)(F)F)n1 (stereo not drawn) [Compound 685, N′-((1,2,3,5,6,7-hexahydrodicyclopenta[b,e]pyridin-8-yl)carbamoyl)-1-(2,2,2-trifluoroethyl)-1H-pyrazole-3-sulfonimidamide]",1 to 5 µM
3,CC(C)(O)c1cc(F)c([S@](N)(=O)=NC(=O)Nc2cc(CC(F)(F)F)nc3c2CCC3)s1 [Compound 602b],1 to 5 µM
4,"CC(C)c1cc(NC(=O)N=S(N)(=O)c2cc(C(C)(C)O)cs2)c2c(n1)CCC2 (single isomer, unassigned) [Compound 182b, (R) or (S)-4-(2-Hydroxypropan-2-yl)-N′-((2-isopropyl-6,7-dihydro-5H-cyclopenta[b]pyridin-4-yl)carbamoyl) thiophene-2-sulfonimidamide]",5 to 30 µM

# Continued, values first:
row,IC50,Compound
1,0.2 to 1 µM,CCn1cc(Cl)c(S(N)(=O)=NC(=O)Nc2c(C)c(C(F)(F)F)nc3c2CCC3)n1 (stereo not drawn) [Compound 729]
2,0.2 to 1 µM,CCn1ccc([S@](N)(=O)=NC(=O)Nc2c3c(nc(C4CC4)c2C2CC2)CCC3)n1 [Compound 726b]
3,5 to 30 µM,"CCC1CCc2c1nc1c(c2NC(=O)N=S(N)(=O)c2ccn(C(F)F)n2)CCC1 (single isomer, unassigned) [Compound 668c, (R, R) or (R, S) or (S, R) or (S, S)-1-(Difluoromethyl)-N′-((3-ethyl-1,2,3,5,6,7-hexahydrodicyclopenta [b,e]pyridin-8-yl)carbamoyl)-1H-pyrazole-3-sulfonimidamide]"

# Same assay, conditions: Homo sapiens, THP-1, Table B2; 2% fetal bovine serum; numeric bounds; read-out: hTHP-1 IC50
row,Compound,IC50
1,"CC(C)n1nc(S(N)(=O)=NC(=O)Nc2c3c(nc4c2CCC4(C)C)CCC3)cc1C(C)(C)O (single isomer, unassigned) [Compound 615a, (S) or (R)-N′-((3,3-dimethyl-1,2,3,5,6,7-hexahydrodicyclopenta [b,e]pyridin-8-yl)carbamoyl)-5-(2-hydroxypropan-2-yl)-1-isopropyl-1H-pyrazole-3-sulfonimidamide]",> 30 µM
2,"CNCc1nc(C(C)(C)O)sc1S(N)(=O)=NC(=O)Nc1c2c(nc3c1CCC3(C)C)CCC2 (stereo not drawn) [Compound 665, N-((3,3-dimethyl-1,2,3,5,6,7-hexahydrodicyclopenta[b,e]pyridin-8-yl)carbamoyl)-2-(2-hydroxypropan-2-yl)-4-((methylamino)methyl)thiazole-5-sulfonimidamide]",> 30 µM

# Second part, the compound after the results:
row,IC50,Compound
1,> 30 µM,"C[C@@H]1CCc2c1nc1c(c2NC(=O)N=S(N)(=O)c2ccn(C)n2)CCC1 (single isomer, unassigned) [Compound 639a, (S) or (R)-1-Methyl-N′-(((R)-3-methyl-1,2,3,5,6,7-hexahydrodicyclopenta [b,e]pyridin-8-yl)carbamoyl)-1H-pyrazole-3-sulfonimidamide]"
2,> 30 µM,"CC(C)(O)c1scc(S(N)(=O)=NC(=O)Nc2c3c(nc4c2CCC4)CCC3)c1F (single isomer, unassigned) [Compound 701b, (S) or (R)-4-Fluoro-N′-((1,2,3,5,6,7-hexahydrodicyclopenta [b,e]pyridin-8-yl)carbamoyl)-5-(2-hydroxypropan-2-yl)thiophene-3-sulfonimidamide]"
3,> 30 µM,Cc1nc2c(c(NC(=O)N=[S@@](N)(=O)c3cnc(C(C)(C)O)s3)c1C1CC1)CCC2 [Compound 738]

# Same assay, conditions: Homo sapiens, THP-1, Table B3; hTHP-1 assay, 2% fetal bovine serum; class symbols; read-out: IC50
row,Compound,IC50
1,"CC1(C)CCc2nc3c(c(NC(=O)N=S(N)(=O)c4ccc([C@](C)(O)COCCOCc5ccccc5)s4)c21)CCC3 (stereo partly drawn) [Example 625, 5-((R)-1-(2-(benzyloxy)ethoxy)-2-hydroxypropan-2-yl)-N′-((1,1-dimethyl-1,2,3,5,6,7-hexahydrodicyclopenta[b,e]pyridin-8-yl)carbamoyl)thiophene-2-sulfonimidamide]",1 to 5 µM
2,"CC(C)n1nc(S(N)(=O)=NC(=O)Nc2c3c(nc4c2CC[C@H]4C)CCC3)cc1CO (stereo partly drawn) [Example 596, 5-(Hydroxymethyl)-1-isopropyl-N-(((R)-3-methyl-1,2,3,5,6,7-hexahydrodicyclopenta[b,e]pyridin-8-yl)carbamoyl)-1H-pyrazole-3-sulfonimidamide]",1 to 5 µM

# The remaining lines, values ahead:
row,IC50,Compound
1,5 to 30 µM,"CC1(C)CCc2c1nc1c(c2NC(=O)N=[S@](N)(=O)c2cc([C@](C)(O)CO)cs2)CCC1 [Example 652, (S)-4-((S)-1,2-dihydroxypropan-2-yl)-N′-((3,3-dimethyl-1,2,3,5,6,7-hexahydrodicyclopenta[b,e]pyridin-8-yl)carbamoyl) thiophene-2-sulfonimidamide]"
2,1 to 5 µM,"CC(C)(O)c1cc(F)c(S(N)(=O)=NC(=O)Nc2cc(CC(F)(F)F)nc3c2CCC3)s1 (single isomer, unassigned) [Example 689, (R) or (S)-3-Fluoro-5-(2-hydroxypropan-2-yl)-N′-((2-(2,2,2-trifluoroethyl)-6,7-dihydro-5H-cyclopenta[b]pyridin-4-yl)carbamoyl)thiophene-2-sulfonimidamide]"

# Same assay, conditions: Homo sapiens, THP-1, Table B4; 2% fetal bovine serum; class symbols; read-out: hTHP-1 IC50
row,IC50,Compound
1,0.2 to 1 µM,"NS(=O)(=NC(=O)Nc1c2c(nc3c1CCC3)CCC2)c1nn(C(F)F)cc1F (single isomer, unassigned) [Example 759, (R) or (S)-1-(difluoromethyl)-4-fluoro-N′-((1,2,3,5,6,7-hexahydrodicyclopenta[b,e]pyridin-8-yl)carbamoyl)-1H-pyrazole-3-sulfonimidamide]"
2,1 to 5 µM,"CC1CCc2c1nc1c(c2NC(=O)N=S(N)(=O)c2cnc(C(O)CO)s2)CCC1 (stereo not drawn) [Example 752, 2-(1,2-Dihydroxyethyl)-N′-((3-methyl-1,2,3,5,6,7-hexahydrodicyclopenta[b,e]pyridin-8-yl)carbamoyl) thiazole-5-sulfonimidamide]"

# Same assay, conditions: Table B1; 2% fetal bovine serum; class symbols; read-out: Average IC50 of compounds in hTHP-1 assay: hTHP-1 IC50
row,IC50,Compound
1,1 to 5 µM,"CC(C)(O)c1cc(F)c(S(N)(=O)=NC(=O)Nc2c3c(nc4c2CCC4(C)C)CCC3)s1 (single isomer, unassigned) [Compound 102a, (S) or (R)-N′-((3,3-dimethyl-1,2,3,5,6,7-hexahydro-dicyclopenta[b,e]pyridin-8-yl)carbamoyl)-3-fluoro-5-(2-hydroxy-propan-2-yl)thiophene-2-sulfonimidamide]"

# Same assay, conditions: Table B2; 2% fetal bovine serum; class symbols; read-out: hTHP-1 IC50
row,IC50,Compound
1,5 to 30 µM,"CC1CCc2c1nc1c(c2NC(=O)N=S(N)(=O)c2cn(C(C)C)cn2)CCC1 (stereo not drawn) [Compound 660, 1-Isopropyl-N′-((3-methyl-1,2,3,5,6,7-hexahydrodicyclopenta[b,e]pyridin-8-yl)carbamoyl)-1H-imidazole-4-sulfonimidamide]"
2,5 to 30 µM,"CCC1CCc2c1nc1c(c2NC(=O)N=S(N)(=O)c2ccn(C(F)F)n2)CCC1 (stereo not drawn) [Compound 668, 1-(Difluoromethyl)-N′-((3-ethyl-1,2,3,5,6,7-hexahydrodicyclopenta[b,e]pyridin-8-yl)carbamoyl)-1H-pyrazole-3-sulfonimidamide]"

# Same assay, conditions: Table B2; 2% fetal bovine serum; numeric bounds; read-out: hTHP-1 IC50
row,IC50,Compound
1,> 30 µM,"CC1CCc2c1nc1c(c2NC(=O)N=S(N)(=O)c2cn(C(C)C)cn2)CCC1 (single isomer, unassigned) [Compound 660b, (S, S) or (R, S) or (S, R) or (R, R)-1-Isopropyl-N′-((3-methyl-1,2,3,5,6,7-hexahydrodicyclopenta [b,e]pyridin-8-yl)carbamoyl)-1H-imidazole-4-sulfonimidamide]"
